Experimental data reported in patent US7750048B2, “GPR40 agonists” (Janssen Pharmaceutica NV, priority 2006, dated 2010).
Values joined by “and” are separate entries in the source; they are usually repeats but may differ in a detail not shown here. Equal entries are not always repeated.

The molecules below were run against T1, GPR40 receptor (Homo sapiens, UniProt O14842) (assay: GPR40 in vitro assay: calcium mobilization in transfected HEK293/hGPR40-32 cells (FDSS6000)). Settings: several values in one cell are separate determinations, read-out: ED50 (the source's name).
T1 construct: expressed in transfected cells; host or cells: HEK293 (clone hGPR40-32)
T1 sequence (O14842 whole entry): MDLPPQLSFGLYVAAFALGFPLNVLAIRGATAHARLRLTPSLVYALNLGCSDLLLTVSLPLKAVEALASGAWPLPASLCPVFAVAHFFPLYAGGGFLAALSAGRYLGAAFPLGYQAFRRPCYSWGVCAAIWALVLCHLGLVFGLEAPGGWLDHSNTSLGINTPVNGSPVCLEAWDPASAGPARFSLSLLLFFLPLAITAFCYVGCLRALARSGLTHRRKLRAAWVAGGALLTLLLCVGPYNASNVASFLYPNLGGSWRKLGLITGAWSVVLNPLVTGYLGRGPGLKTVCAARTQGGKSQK
Type: cell-based
Procedure: To identify agonists of GPR40 receptor, the following assay was used to measure FFA-induced calcium mobilization in transfected cell lines HEK293/hGPR40-32: • Plate 20,000 cell/well in Corning 384 well plate (Cat# 3712); • Incubate over night (16 to 24 hours); • Remove medium; • Add 40 μl of 1×BD dye (1× signal enhancer, 1× calcium indicator dye, 1× probenecid, 0.01% BSA in DMEM/F12 media without Phenol Rad); • Incubate 30 minutes at 37° C. and 15 minutes at RT; • Read with the FDSS6000 System; • Add 20 μl of test compound (in 0.01% BSA in DMEM/F12 media without Phenol Rad); • Read for 5 minutes; • Add 20 μl of 40 μM linolenic acid or GPR40 agonist (in 0.01% BSA in DMEM/F12 media without Phenol Rad); • Read for 2 minutes.
Percentage Inhibition and/or ED50 were calculated following conventional methods.
For `CCC(CC)COc1ccc(C(CC(=O)O)c2ccccc2)cc1` (racemic) [Compound 11, 3-[4-(2-Ethyl-butoxy)-phenyl]-3-phenyl-propionic acid], the EC50 was 0.64 µM. Work on `CCC(CC)COc1ccc(C(CC(=O)O)c2ccccc2)cc1` (single isomer, unassigned) [Compound 14, 3-[4-(2-Ethyl-butoxy)-phenyl]-3-phenyl-propionic acid] yielded an EC50 of over 30 µM. With `CCC(CC)COc1ccc(C(CC(=O)O)c2ccccc2)cc1` (single isomer, unassigned) [Compound 15, 3-[4-(2-Ethyl-butoxy)-phenyl]-3-phenyl-propionic acid] the EC50 was 0.85 µM. `CC[C@@H](C)COc1ccc(C(CC(=O)O)c2ccccc2)cc1` (single isomer, unassigned) [Compound 16, 3-[4-(2-Methyl-butoxy)-phenyl]-3-phenyl-propionic acid] gave an EC50 of 0.71 µM. Work on `CC[C@H](C)COc1ccc(C(CC(=O)O)c2ccccc2)cc1` (single isomer, unassigned) [Compound 17, 3-[4-(2-Methyl-butoxy)-phenyl]-3-phenyl-propionic acid] yielded an EC50 of 0.56 µM. `CC[C@@H](C)COc1ccc(C(CC(=O)O)c2ccccc2)cc1` (single isomer, unassigned) [Compound 18, 3-[4-(2-Methyl-butoxy)-phenyl]-3-phenyl-propionic acid] was tested, and the EC50 was over 10 µM. For `CC[C@H](C)COc1ccc(C(CC(=O)O)c2ccccc2)cc1` (single isomer, unassigned) [Compound 19, 3-[4-(2-Methyl-butoxy)-phenyl]-3-phenyl-propionic acid], the EC50 was over 10 µM. With `CCCOc1ccc(C(CC(=O)O)c2ccccc2)cc1` (stereo not drawn) [Compound 1, 3-Phenyl-3-(4-propoxy-phenyl)-propionic acid] the EC50 was 3.7 µM. For `CCCCOc1ccc(C(CC(=O)O)c2ccccc2)cc1` (stereo not drawn) [Compound 2, 3-(4-Butoxy-phenyl)-3-phenyl-propionic acid], the EC50 was 1.43 µM and 0.96 µM. In the case of `CCCCCOc1ccc(C(CC(=O)O)c2ccccc2)cc1` (stereo not drawn) [Compound 3, 3-(4-Pentyloxy-phenyl)-3-phenyl-propionic acid], the EC50 is reported as 3.3 µM and 4.2 µM and 1.4 µM. `CCCCCCOc1ccc(C(CC(=O)O)c2ccccc2)cc1` (stereo not drawn) [Compound 4, 3-(4-Hexyloxy-phenyl)-3-phenyl-propionic acid] gave an EC50 of 2.88 µM. `CCCCCCCOc1ccc(C(CC(=O)O)c2ccccc2)cc1` (stereo not drawn) [Compound 5, 3-(4-Heptyloxy-phenyl)-3-phenyl-propionic acid] showed an EC50 of 4.26 µM. Molecule `O=C(O)CC(c1ccccc1)c1ccc(OCCCC(F)(F)F)cc1` (stereo not drawn) [Compound 6, 3-Phenyl-3-[4-(4,4,4-trifluoro-butoxy)-phenyl]-propionic acid] has an EC50 of 3.16 µM. `CC(C)CCOc1ccc(C(CC(=O)O)c2ccccc2)cc1` (stereo not drawn) [Compound 7, 3-[4-(3-Methyl-butoxy)-phenyl]-3-phenyl-propionic acid] was tested, and the EC50 was 1.81 µM and 2.58 µM and 1.18 µM. For `C=C(C)CCOc1ccc(C(CC(=O)O)c2ccccc2)cc1` (stereo not drawn) [Compound 8, 3-[4-(3-Methyl-but-3-enyloxy)-phenyl]-3-phenyl-propionic acid], the EC50 was 2.71 µM. With `CC=CCOc1ccc(C(CC(=O)O)c2ccccc2)cc1` (stereo not drawn) [Compound 9, 3-(4-But-2-enyloxy-phenyl)-3-phenyl-propionic acid] the EC50 was 2.71 µM. `COCCCOc1ccc(C(CC(=O)O)c2ccccc2)cc1` (stereo not drawn) [Compound 10, 3-[4-(3-methoxy-propoxy)-phenyl]-3-phenyl-propionic acid] showed an EC50 of 7.58 µM. `CCC(C)COc1ccc(C(CC(=O)O)c2ccccc2)cc1` (stereo not drawn) [Compound 12, 3-[4-(2-Methyl-butoxy)-phenyl]-3-phenyl-propionic acid] was tested, and the EC50 was 0.33 µM and 0.26 µM. `CC1CCC(Oc2ccc(C(CC(=O)O)c3ccccc3)cc2)CC1` (stereo not drawn) [Compound 13, 3-[4-(4-Methyl-cyclohexyloxy)-phenyl]-3-phenyl-propionic acid] showed an EC50 of 7.32 µM. `CCCCOc1ccc(C(CC(=O)O)c2cccc(F)c2)cc1` (stereo not drawn) [Compound 20, 3-(4-Butoxy-phenyl)-3-(3-fluoro-phenyl)-propionic acid] showed an EC50 of 1.44 µM. With `CCCCOc1ccc(C(CC(=O)O)c2cccc(C(F)(F)F)c2)cc1` (stereo not drawn) [Compound 21, 3-(4-Butoxy-phenyl)-3-(3-trifluoromethyl-phenyl)-propionic acid] the EC50 was 2.84 µM. `CCCCOc1ccc(C(CC(=O)O)c2ccccc2O)cc1` (stereo not drawn) [Compound 22, 3-(4-Butoxy-phenyl)-3-(2-hydroxy-phenyl)-propionic acid] gave an EC50 of 4.8 µM. `CCCCOc1ccc(C(CC(=O)O)c2cccs2)cc1` (stereo not drawn) [Compound 23, 3-(4-Butoxy-phenyl)-3-thiophen-2-yl-propionic acid] was tested, and the EC50 was 0.96 µM and 1.61 µM. Molecule `COCCOc1ccc(C(CC(=O)O)c2ccccc2)cc1` (stereo not drawn) [Compound 24, 3-[4-(2-Methoxy-ethoxy)-phenyl]-3-phenyl-propionic acid] has an EC50 of over 10 µM. `CCC(CC)Oc1ccc(C(CC(=O)O)c2ccccc2)cc1` (stereo not drawn) [Compound 25, 3-[4-(1-Ethyl-propoxy)-phenyl]-3-phenyl-propionic acid] was tested, and the EC50 was over 10 µM. `CCCCOc1ccc(C(CC(=O)O)c2ccc(OC(F)(F)F)cc2)cc1` (stereo not drawn) [Compound 26, 3-(4-Butoxy-phenyl)-3-(4-trifluoromethoxy-phenyl)-propionic acid] showed an EC50 of over 10 µM. Molecule `CC(C)(C)CCOc1ccc(C(CC(=O)O)c2ccccc2)cc1` (stereo not drawn) [Compound 28, 3-[4-(3,3-Dimethyl-butoxy)-phenyl]-3-phenyl-propionic acid] has an EC50 of over 10 µM.
